This is an account of results in US12336981B2, “Compounds and compositions for the inhibition of NAMPT” (Valo Health, Inc., priority 2010, dated 2025).

Test [1] concerns the target T1, NAMPT (Homo sapiens, UniProt P43490).
T1 construct: His tag; host or cells: E. coli
Put plainly: Biochemical inhibition assay: NAMPT enzymatic reaction, NMN quantified by mass spectrometry. The conditions noted are these: read-out: Biochem IC50. The procedure, abridged: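 Inhibition of E. coli-expressed His-tagged human NAMPT, measured as NMN formation by mass spectrometry after a 30 min room-temperature reaction containing 1 μM NAM, 100 μM PRPP and 2.5 mM ATP.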

Test [2] concerns A2780 cells. Put plainly: In-vitro cell proliferation assay (SRB), A2780 cells. The conditions noted are these: Homo sapiens, A2780, 72 h, A2780 cells, 72 hours, read-out: A2780 IC50. The format is cell-based. The procedure, abridged: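 SRB read-out: 6% TCA fix 1 h at 4° C., stain, Tris solubilize, A570. Media-only background subtracted; % inhibition from two compound concentrations.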

Where two headings read alike, the source gives them in different places.

T1 sequence (P43490 whole entry): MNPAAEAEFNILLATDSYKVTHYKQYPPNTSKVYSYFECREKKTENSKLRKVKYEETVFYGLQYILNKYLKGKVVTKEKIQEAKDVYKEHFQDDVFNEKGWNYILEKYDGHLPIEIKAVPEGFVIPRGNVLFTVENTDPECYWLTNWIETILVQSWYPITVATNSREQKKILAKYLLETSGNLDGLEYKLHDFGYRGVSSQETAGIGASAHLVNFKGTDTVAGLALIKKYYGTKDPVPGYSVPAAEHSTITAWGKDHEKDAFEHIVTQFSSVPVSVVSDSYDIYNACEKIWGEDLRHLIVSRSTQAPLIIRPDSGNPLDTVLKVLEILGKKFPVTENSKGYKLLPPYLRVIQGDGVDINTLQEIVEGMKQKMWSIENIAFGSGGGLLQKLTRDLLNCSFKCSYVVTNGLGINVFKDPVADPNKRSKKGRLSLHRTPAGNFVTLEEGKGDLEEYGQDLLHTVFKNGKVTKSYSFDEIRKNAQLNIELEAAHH

In general, IC50 refers to the concentration that inhibits the measured activity by half. Regarding `O=C(NCc1ccc(S(=O)(=O)c2cc(F)cc(C(F)(F)F)c2)cc1)c1cnc2[nH]ncc2c1` [N-[(4-{[3-fluoro-5-(trifluoromethyl)benzene]sulfonyl}phenyl)methyl]-1H-pyrazolo[3,4-b]pyridine-5-carboxamide], the IC50 in test [1] (NAMPT enzymatic assay) was 11.2 nM; in test [2] (SRB), 3.45 nM.

As for `O=C(NCc1ccc(S(=O)(=O)c2cc(F)cc(C(F)(F)F)c2)cc1)c1cc2ccncc2s1` [N-[(4-{[3-fluoro-5-(trifluoromethyl)benzene]sulfonyl}phenyl)methyl]thieno[2,3-c]pyridine-2-carboxamide], the half-inhibitory concentration (IC50) in test [1] (NAMPT enzymatic assay) was determined as 10.2 nM; in test [2] (SRB), 3.1 nM.

As for `CC(C)COc1ccc(S(=O)(=O)c2ccc(CNC(=O)c3cnc4[nH]ncc4c3)cc2)cc1` [N-[(4-{[4-(2-methylpropoxy)benzene]sulfonyl}phenyl)methyl]-1H-pyrazolo[3,4-b]pyridine-5-carboxamide], the half-inhibitory concentration (IC50) in test [1] (NAMPT enzymatic assay) was found to be 26.3 nM; in test [2] (SRB), 16.2 nM.

Regarding `CCOc1ccc(-c2ccc(S(=O)(=O)c3ccc(CNC(=O)c4cc5cnccc5[nH]4)cc3)cc2)cc1` [N-[(4-{[4-(4-ethoxyphenyl)benzene]sulfonyl}phenyl)methyl]-1H-pyrrolo[3,2-c]pyridine-2-carboxamide], the IC50 in test [1] (NAMPT enzymatic assay) and in test [2] (SRB) was 9 nM throughout.

As for `O=C(NCc1ccc(S(=O)(=O)c2ccc(C(F)F)c(F)c2)cc1)c1cnc2nccn2c1` [N-[(4-{[4-(difluoromethyl)-3-fluorobenzene]sulfonyl}phenyl)methyl]imidazo[1,2-a]pyrimidine-6-carboxamide], the IC50 in test [1] (NAMPT enzymatic assay) turned out to be 8.2 nM; in test [2] (SRB), 27.9 nM.

In the case of `CN(C)C(=O)c1ccc(S(=O)(=O)c2ccc(CNC(=O)c3cc4cnccc4[nH]3)cc2)cc1` [N-[(4-{[4-(dimethylcarbamoyl)benzene]sulfonyl}phenyl)methyl]-1H-pyrrolo[3,2-c]pyridine-2-carboxamide], the values for the IC50 in test [1] (NAMPT enzymatic reaction) and in test [2] (SRB assay) were 27 nM and 14 nM, respectively.

`CCOCc1ccc(S(=O)(=O)c2ccc(CNC(=O)c3cnc4[nH]ncc4c3)cc2)cc1` [N-[(4-{[4-(ethoxymethyl)benzene]sulfonyl}phenyl)methyl]-1H-pyrazolo[3,4-b]pyridine-5-carboxamide]: the 50% inhibitory concentration (IC50) in test [1] (NAMPT enzymatic assay) came to 26.6 nM; in test [2] (SRB), 12.8 nM.

In the case of `CCNC(=O)c1ccc(S(=O)(=O)c2ccc(CNC(=O)c3cnc4[nH]ncc4c3)cc2)cc1` [N-[(4-{[4-(ethylcarbamoyl)benzene]sulfonyl}phenyl)methyl]-1H-pyrazolo[3,4-b]pyridine-5-carboxamide], the values for the half-maximal inhibitory concentration (IC50) in test [1] (NAMPT enzymatic assay) and in test [2] (SRB) were 103 nM and 96.8 nM, respectively.

For `O=C(NCc1ccc(S(=O)(=O)c2ccc(CO)cc2)cc1)c1cc2ccncc2s1` [N-[(4-{[4-(hydroxymethyl)benzene]sulfonyl}phenyl)methyl]thieno[2,3-c]pyridine-2-carboxamide], the values for the IC50 in test [1] (NAMPT enzymatic assay) and in test [2] (SRB) were 3.8 nM and 6.6 nM, respectively.

For the compound `O=C(NCc1ccc(S(=O)(=O)c2ccc(N3CCOCC3)cc2)cc1)c1cnc2[nH]ncc2c1` [N-[(4-{[4-(morpholin-4-yl)benzene]sulfonyl}phenyl)methyl]-1H-pyrazolo[3,4-b]pyridine-5-carboxamide], the values for the 50% inhibitory concentration (IC50) in test [1] (NAMPT enzymatic assay) and in test [2] (SRB) were 4.45 nM and 2.47 nM, respectively.

As for `CC(C)c1ccc(S(=O)(=O)c2ccc(CNC(=O)c3ccc4nccn4c3)cc2)cc1` [N-[(4-{[4-(propan-2-yl)benzene]sulfonyl}phenyl)methyl]imidazo[1,2-a]pyridine-6-carboxamide], the half-inhibitory concentration (IC50) was 14.6 nM in test [1] (NAMPT enzymatic assay) and 6.66 nM in test [2] (SRB).

For `CC(C)c1ccc(S(=O)(=O)c2ccc(CNC(=O)c3cc4ccncc4s3)cc2)cc1` [N-[(4-{[4-(propan-2-yl)benzene]sulfonyl}phenyl)methyl]thieno[2,3-c]pyridine-2-carboxamide], the results for the IC50 in test [1] (NAMPT enzymatic reaction) and in test [2] (SRB assay) were 6 nM and 7.1 nM, respectively.

Consider `CC(C)Oc1ccc(S(=O)(=O)c2ccc(CNC(=O)c3cnc4[nH]ncc4c3)cc2)cc1` [N-[(4-{[4-(propan-2-yloxy)benzene]sulfonyl}phenyl)methyl]-1H-pyrazolo[3,4-b]pyridine-5-carboxamide], for which the half-inhibitory concentration (IC50) in test [1] (NAMPT enzymatic assay) was found to be 8 nM; in test [2] (SRB), 6.6 nM.
